Values quoted from earlier work, collected in patent publication US20220401366A1, “LONG ACTING NMDA ANTAGONISTS” (Consegna Pharma, Inc., priority 2019, published 2022).

Settings: S-ketamine versus R-ketamine

In the case of CN[C@]1(c2ccccc2Cl)CCCCC1=O [S-ketamine], the “potency relative to R-ketamine” value is given as “twice as potent as R-ketamine”.
